The test system of experiment [1] is human umbilical vein endothelial cells (HUVEC). In words: Cell proliferation assay with vWF HBD, HUVEC. Format: cell-based. The following applies: vWF HBD coated plates, 72 hrs. The procedure: Cell proliferation assays were performed as previously reported1. Briefly, human lung fibroblasts (Lonza) were cultured using FGM-2 medium (Lonza) (1000 cells/well) or human umbilical vein endothelial cells (HUVEC, Lonza) were cultured using EGM-2 medium (Lonza) (1000 cells/well) on 1 μg/mL vWF HBD pre-coated 96-well plates (Tissue culture treated, Falcon). Cell numbers were quantified after 72 hrs using a CyQUANT assay (Invitrogen).

The next experiment concerns human lung fibroblasts. Description: Cell adhesion assay on vWF HBD coated plates. As to conditions: 1 μg/mL vWF HBD coated plates. It is filed as cell-based. The procedure: Cell adhesion assays were performed using starved human lung fibroblasts (Lonza) in FGM-2 medium (Lonza) with or without 5 mM EDTA. Cells were plated at 3000 cells/well on 1 μg/mL vWF HBD pre-coated 96-well plates (non-tissue culture treated, Greiner Bio-one) and incubated for 30 min at 37° C. Then, the medium was removed, and wells were further washed three times with new FGM-2 medium. Cell numbers were quantified using a CyQUANT assay (Invitrogen).

In experiment [2] the test system is full-thickness back-skin wounds in db/db mice. Description: Mouse diabetic skin wound healing model, histomorphometric analysis. Format: in vivo. The following applies: fibrin matrix, 100 ng VEGF-A165 and 50 ng PDGF-BB, after 7 d, vs fibrin alone. The procedure:
Histomorphometric analyses were performed as previously reported. Briefly, an area of 8 mm in diameter, which includes the complete epithelial margins, was excised. Wounds were fixed with 2% PFA and cut in the center into two and embedded into paraffin. Histological analysis was performed on 5 μm serial sections. Images were captured with an EVOS FL Auto microscope (Life Technologies). The extent of re-epithelialization and granulation tissue formation were measured by histomorphometric analysis of tissue sections (H&E staining) using ImageJ software. For analysis of re-epithelialization, the distance that the epithelium had traveled across the wound was measured; the muscle edges of the panniculus carnosus were used as an indicator for the initial wound edges, and re-epithelialization was calculated as the percentage of the distance of edges of the panniculus carnosus muscle. For granulation tissue quantification, the area covered by a highly cellular tissue was determined.
Diabetic skin wound healing assays were performed in the mouse as previously reported. Briefly, C57BLKS/J-m/Lepr db (db/db) male mice were 10 to 12 wk old at the start of the experiments. Their backs were shaved and four full-thickness punch biopsy wounds (6 mm in diameter) were created in each mouse. […]

For a further experiment, the target named is T1, PDGF-BB (Homo sapiens, UniProt P01127).
T1 construct: All growth factors (GFs) and chemokines were purchased in their mature forms; purchased PeproTech; host or cells: Escherichia coli
T1 sequence (P01127 82-190 limits assumed): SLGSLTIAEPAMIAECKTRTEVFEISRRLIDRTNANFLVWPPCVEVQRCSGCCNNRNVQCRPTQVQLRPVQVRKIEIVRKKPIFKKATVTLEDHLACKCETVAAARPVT
In words: Surface plasmon resonance, vWF against GF. As to conditions: SPR; vWF immobilized; two estimated binding sites, heterogeneous ligand-parallel reaction fit; read-out: lowest KD value for PDGF-BB. The procedure: SPR assays were performed as described previously2. In brief, measurements were made with a Biacore X100 SPR system or Biacore 3000 SPR system (GE Healthcare). Plasma-derived vWF was immobilized via amine coupling on a C1 chip (GE Healthcare) for 2000 resonance units (RU) according to the manufacturer's instructions. Recombinant human VEGF-A165, VEGF-A121, or PDGF-BB was flowed at increasing concentrations in the running buffer at 30 μL/min. The sensor chip was regenerated with glycine at pH 2 for every cycle. Specific binding of GFs to vWF was calculated automatically using the response to a non-functionalized channel as a reference. Binding curves were fitted using BIAevalution software (GE Healthcare). vWF-VEGF-A165 binding results were fitted with Langmuir binding kinetics (1:1 binding with drifting baseline Rmax local). vWF-PDGF-BB binding results were fitted with heterogeneous ligand-parallel reaction.

A further experiment has as its system VEGF-A. In words: vWF binding to VEGF-A in human serum (sandwich ELISA, immunoprecipitation and Western blotting). The following applies: two lots of pooled serum from healthy donors. As for the experimental part: One mL of human serum was immunoprecipitated with 10 μg of monoclonal rabbit anti-human vWF antibody (SinoBiological) or control rabbit IgG (EMD Millipore) and 50 μL of protein G-agarose (Thermo Fisher Scientific) overnight at 4° C. The resulting pellet was dissolved in Laemmli buffer and subjected to Western blot analysis. Western blot analysis was performed after SDS-PAGE (4-20% gradient gel, Bio-Rad) and transfer onto MS nitrocellulose membranes (Membrane Solutions). GFs were detected using 1 μg/mL biotinylated antibodies for human VEGF-A (R & D Systems), followed by incubation with HRP conjugated streptavidin (R & D Systems) at 1:200 dilutions. The proteins were detected and visualized with the ECL Plus Western Blotting Detection System (GE Healthcare).
The study was approved by the ethics committees of the Hammersmith, Queen Charlotte's, and Royal Marsden hospitals; informed consent was obtained from all individuals in accordance with the Declaration of Helsinki. ELISA plates (med-binding) were coated with 10 μg/mL rabbit monoclonal anti-human vWF antibody (clone: 111, SinoBiological). […] The antibodies were detected by streptavidin-HRP (R & D Systems). Color development and the absorbance measurement were done as described above.

With YIGLKDRKRPSELRRIASQVKYAC [vWF HBD], in experiment [1], the endothelial proliferation entry is given as “did not affect endothelial proliferation”. Further, the “fibroblast attachment with EDTA” value in the experiment on human lung fibroblasts (5 mM EDTA) was “inhibited”. Moreover, in the experiment with human lung fibroblasts (30 min, without EDTA), the fibroblast attachment result is on record as “significantly enhanced fibroblast attachment”. Also, in experiment [2], the granulation tissue result is listed as “did not differ” and the wound closure result was “did not differ”.
For the substance “vWF: human plasma-derived von Willebrand factor (EMD Millipore)”, the equilibrium dissociation constant (Kd) in the experiment with PDGF-BB was 24 nM. Also, in the experiment with VEGF-A, the “vWF binding to VEGF-A in pooled human serum” value was “binds to VEGF-A”.

Source of the values: patent publication US11732029B2, “Methods and compositions for the treatment of wounds” (The University of Chicago, priority 2017, dated 2023).
